Experimental data published in ChEMBL document CHEMBL5143637, “Design, synthesis and antibacterial activity against pathogenic mycobacteria of conjugated hydroxamic acids, hydrazides and O-alkyl/O-acyl protected hydroxamic derivatives” (Bioorg Med Chem Lett, 2022).
≈ marks a conversion by molar mass, not a printed value.

Key:
[1] = system: Mycolicibacterium smegmatis; experiment: Antimycobacterial activity against Mycobacterium smegmatis mc2 155 harbouring pMyC::PDFMtb overexpression mutant assessed as inhibition of mycobacterial growth incubated for 3 to 5 days by resazurin microtiter assay; type: functional; conditions: time 3-5 day
[2] = Selectivity index, ratio of MIC50 for antimycobacterial activity against Mycobacterium smegmatis mc2 155 harbouring pMyC::PDFMtb overexpression mutant to MIC50 for antimycobacterial activity against wild type Mycobacterium smegmatis mc2 155; type: functional
[3] = Selectivity index, ratio of MIC90 for antimycobacterial activity against Mycobacterium smegmatis mc2 155 harbouring pMyC empty vector to MIC90 for antimycobacterial activity against wild type Mycobacterium smegmatis mc2 155; type: functional
[4] = system: Mycolicibacterium smegmatis; experiment: Antimycobacterial activity against Mycobacterium smegmatis mc2 155 harbouring pMyC empty vector assessed as inhibition of mycobacterial growth incubated for 3 to 5 days by resazurin microtiter assay; type: functional; conditions: time 3-5 day
[5] = Selectivity index, ratio of MIC90 for antimycobacterial activity against Mycobacterium smegmatis mc2 155 harbouring pMyC::PDFMtb overexpression mutant to MIC90 for antimycobacterial activity against wild type Mycobacterium smegmatis mc2 155; type: functional
[6] = system: Mycolicibacterium smegmatis; experiment: Antimycobacterial activity against wild type Mycobacterium smegmatis mc2 155 assessed as inhibition of mycobacterial growth incubated for 3 to 5 days by resazurin microtiter assay; type: functional; conditions: time 3-5 day
[7] = Selectivity index, ratio of MIC50 for antimycobacterial activity against Mycobacterium smegmatis mc2 155 harbouring pMyC empty vector to MIC50 for antimycobacterial activity against wild type Mycobacterium smegmatis mc2 155; type: functional
[8] = system: Mycobacterium tuberculosis; experiment: Antimycobacterial activity against Mycobacterium tuberculosis H37Rv assessed as inhibition of bacterial growth incubated for 8 days; type: functional; conditions: 192 h, time 8 day
[9] = Cytotoxicity against mouse BMDM cells; type: toxicity, cell-based; conditions: BMDM cells (bone marrow-derived macrophages)
[10] = system: Mycobacterium tuberculosis; experiment: Antimycobacterial activity against Mycobacterium tuberculosis mc2 6230 assessed as inhibition of mycobacterial growth incubated for 10 to 14 days by resazurin microtiter assay; type: functional; conditions: time 10-14 day
Mycobacterium marinum = experiment: Antimycobacterial activity against Mycobacterium marinum ATCC BAA-535/M assessed as inhibition of mycobacterial growth incubated for 10 to 14 days by resazurin microtiter assay; type: functional; conditions: time 10-14 day
[11] = Inhibition of Mycobacterium tuberculosis H37Rv PDF expressed in Escherichia coli using N-formyl-methionine-alanine-serine as substrate incubated for 2.5 mins by fluorescence based microplate reader analysis
BMDM = experiment: (§1) Cytotoxicity against C57BL/6 mouse BMDM cells assessed as reduction in cell viability measured after 24 hrs by resazurin dye based assay; type: toxicity; conditions: mouse, bmdm, 24 h
[12] = system: Mycobacteroides abscessus; experiment: Antimycobacterial activity against Mycobacterium abscessus CIP104536T with smooth morphotype assessed as inhibition of mycobacterial growth incubated for 3 to 5 days by resazurin microtiter assay; type: functional; conditions: time 3-5 day
[13] = system: Mycobacteroides abscessus; experiment: Antimycobacterial activity against Mycobacterium abscessus CIP104536T with rough morphotype assessed as inhibition of mycobacterial growth incubated for 3 to 5 days by resazurin microtiter assay; type: functional; conditions: time 3-5 day
[14] = as §1; type: toxicity; conditions: C57BL/6, mouse, BMDM cells (bone marrow-derived macrophages)

Row | Compound | MIC50 [1] | MIC90 [1] | Ratio [2] | Ratio [3] | MIC50 [4] | MIC90 [4] | Ratio [5] | MIC50 [6] | MIC90 [6] | Ratio [7] | MIC50 [10] | MIC90 [10] | MIC50 (Mycobacterium marinum) | MIC90 (Mycobacterium marinum) | MIC50 [12] | MIC50 [13] | CC50 at 24 h [14] | other results
1 | CO[C@H]1/C=C/O[C@@]2(C)Oc3c(C)c(O)c4c(O)c(c(/C=N/N5CCN(C)CC5)c(O)c4c3C2=O)NC(=O)/C(C)=C\C=C\[C@H](C)[C@H](O)[C@@H](C)[C@@H](O)[C@@H](C)[C@H](OC(C)=O)[C@@H]1C [RIFAMPIN] | 0.63 µg/mL (≈ 0.766 µM) | 2.4 µg/mL (≈ 2.92 µM) | 0.83 | 1.09 | 0.57 µg/mL (≈ 0.693 µM) | 2.83 µg/mL (≈ 3.44 µM) | 0.93 | 0.76 µg/mL (≈ 0.924 µM) | 0.76 µg/mL (≈ 0.924 µM) | 0.75 |  |  |  |  |  |  |  | 
2 | NNC(=O)c1ccncc1 [ISONIAZID] | 1.2 µg/mL (≈ 8.75 µM) | 2.5 µg/mL (≈ 18.2 µM) | 0.84 | 0.86 | 1.3 µg/mL (≈ 9.48 µM) | 2.7 µg/mL (≈ 19.7 µM) | 0.8 | 1.4 µg/mL (≈ 10.2 µM) | 3.1 µg/mL (≈ 22.6 µM) | 0.9 | 0.07 µg/mL (≈ 0.51 µM) | 0.11 µg/mL (≈ 0.802 µM) | 2.8 µg/mL (≈ 20.4 µM) | 9.2 µg/mL (≈ 67.1 µM) |  |  |  | MIC [8]: 0.1 µg/mL (≈ 0.729 µM); CC50 [9]: > 20 µg/mL
3 | CCCC[C@H](CN(O)C=O)C(=O)N1CCC[C@H]1C(=O)Nc1ccccn1 |  |  |  |  |  |  |  |  |  |  |  |  |  |  |  |  |  | IC50 [11]: 69.5 nM
4 | Cl.O=C(/C=C/c1ccncc1)NO |  |  |  |  |  |  |  |  |  |  | 32.1 µg/mL | 33.6 µg/mL | 12.6 µg/mL | 54 µg/mL | > 100 µg/mL | > 100 µg/mL |  | CC50 (BMDM): < 10 µg/mL
5 | NCC[C@H](O)C(=O)N[C@@H]1C[C@H](N)[C@@H](O[C@H]2O[C@H](CN)[C@@H](O)[C@H](O)[C@H]2O)[C@H](O)[C@H]1O[C@H]1O[C@H](CO)[C@@H](O)[C@H](N)[C@H]1O [AMIKACIN] |  |  |  |  |  |  |  |  |  |  | 0.24 µg/mL (≈ 0.41 µM) | 0.37 µg/mL (≈ 0.632 µM) | 0.62 µg/mL (≈ 1.06 µM) | 1.7 µg/mL (≈ 2.9 µM) | 2.3 µg/mL (≈ 3.93 µM) | 4.3 µg/mL (≈ 7.34 µM) |  | CC50 [9]: > 90 µg/mL; MIC90 [12]: 3.4 µg/mL (≈ 5.81 µM); MIC90 [13]: 5.9 µg/mL (≈ 10.1 µM)
6 | NNC(=O)/C=C/c1ccc(-c2ccccc2)cc1 | 56.6 µg/mL (≈ 238 µM) | > 200 µg/mL | 5.9 | 0.75 | 7.2 µg/mL (≈ 30.2 µM) | 43.8 µg/mL (≈ 184 µM) | > 3.7 | 9.6 µg/mL (≈ 40.3 µM) | 53.6 µg/mL (≈ 225 µM) | 0.75 | 13.1 µg/mL (≈ 55 µM) | 22 µg/mL (≈ 92.3 µM) | 22.2 µg/mL (≈ 93.2 µM) | 71.5 µg/mL (≈ 300 µM) | > 100 µg/mL | 18.9 µg/mL (≈ 79.3 µM) | 125 µg/mL (≈ 525 µM) | MIC90 [13]: > 100 µg/mL
7 | CCCCOc1ccc(/C=C/C=C/C(=O)NN)cc1 |  |  |  |  |  |  |  |  |  |  | > 100 µg/mL |  | > 100 µg/mL |  | > 100 µg/mL | > 100 µg/mL | 65 µg/mL (≈ 250 µM) | 
8 | O=C(/C=C/c1cccc(F)c1)NO |  |  |  |  |  |  |  |  |  |  | 13.5 µg/mL (≈ 74.5 µM) | > 100 µg/mL | 3.3 µg/mL (≈ 18.2 µM) | 25.9 µg/mL (≈ 143 µM) | 12.2 µg/mL (≈ 67.3 µM) | 7.6 µg/mL (≈ 42 µM) | < 10 µg/mL | MIC90 [12]: > 100 µg/mL; MIC90 [13]: 68.4 µg/mL (≈ 378 µM)
9 | O=C(/C=C/C=C/c1ccncc1)NO |  |  |  |  |  |  |  |  |  |  | 19.4 µg/mL (≈ 102 µM) | 27.6 µg/mL (≈ 145 µM) | 26.9 µg/mL (≈ 141 µM) | > 100 µg/mL | > 100 µg/mL | > 100 µg/mL | < 10 µg/mL | 
10 | CCCCCCONC(=O)/C=C/C=C/c1ccc(F)cc1 |  |  |  |  |  |  |  |  |  |  | > 100 µg/mL |  | 37.1 µg/mL (≈ 127 µM) | > 100 µg/mL | > 100 µg/mL | > 100 µg/mL | > 125 µg/mL | 
11 | CCCCCCCOc1ccc(/C=C/C=C/C(=O)NO)cc1 |  |  |  |  |  |  |  |  |  |  | > 100 µg/mL |  | 48.3 µg/mL (≈ 159 µM) | 68.3 µg/mL (≈ 225 µM) | > 100 µg/mL | > 100 µg/mL | 67 µg/mL (≈ 221 µM) | 
12 | NNC(=O)/C=C/c1ccc2c(c1)OCO2 |  |  |  |  |  |  |  |  |  |  | > 100 µg/mL |  | > 100 µg/mL |  | > 100 µg/mL | > 100 µg/mL | 123 µg/mL (≈ 597 µM) | 
13 | NC[C@H]1O[C@H](O[C@H]2[C@H](O)[C@@H](O[C@H]3O[C@H](CO)[C@@H](O)[C@H](N)[C@H]3O)[C@H](N)C[C@@H]2N)[C@H](O)[C@@H](O)[C@@H]1O [KANAMYCIN] | 0.49 µg/mL (≈ 1.01 µM) | 0.87 µg/mL (≈ 1.8 µM) | 1.23 | 1.14 | 0.48 µg/mL (≈ 0.991 µM) | 1.07 µg/mL (≈ 2.21 µM) | 0.93 | 0.4 µg/mL (≈ 0.826 µM) | 0.94 µg/mL (≈ 1.94 µM) | 1.2 |  |  |  |  |  |  |  | 
